Results on five molecules are retold here after ChEMBL document CHEMBL1134421, “Anticancer properties for 4,4'-dihydroxybenzophenone-2,4-dinitrophenylhydrazone (A-007)/3,7-diaminophenothiazin-5-ium double salts” (Bioorg Med Chem Lett, 2001).

Structures are written as SMILES. Values after ≈ are worked out from the molar mass of the structure shown. A value given as a limit tells only on which side of the number the result lay.

Assay [1] can be described thus: Tested for anticancer activity against human lung cancer (NSCLC). It counts as functional.
Assay [2] deals with Melanoma cell. Put plainly: Tested for anticancer activity against human melanoma. It counts as functional, cell-based.
Assay [3] has as its system Breast cancer cell line. Put plainly: Tested for anticancer activity against human breast cancer. The format is functional, cell-based.
Assay [4] concerns Ovarian cancer cell line. Put plainly: Tested for anticancer activity against human ovarian cancer. The format is functional, cell-based.
The species entered for assay [5] is Homo sapiens. Put plainly: Tested against normal human peripheral blood dendritic cells, expressed as IC50. It counts as functional, cell-based.
Assay [6] is filed under the species Rattus norvegicus. Put plainly: Tested for diffusion of compound into rat skin receptor fluid, at a dose of 0.05 mg. It counts as functional.
[7] abbreviates: Homo sapiens, Melanoma cell, read-out: IC50.

As for `COc1cccc2c1C(=O)c1c(O)c3c(c(O)c1C2=O)C[C@@](O)(C(=O)CO)C[C@@H]3O[C@H]1C[C@H](N)[C@H](O)[C@H](C)O1` [DOXORUBICIN], the 50% inhibitory concentration (IC50) in assay [1] was over 30 µg/mL; in assay [2] (setting [7]), over 5 µg/mL; in assay [3], 0.9 µg/mL (≈ 1.66 µM).

Consider `Nc1ccc2nc3ccc(N)cc3[s+]c2c1.O=[N+]([O-])c1ccc(NN=C(c2ccc(O)cc2)c2ccc(O)cc2)c([N+](=O)[O-])c1.[Cl-]`, for which the IC50 in assay [4] is 0.2 µg/mL; in assay [1] it was over 10 µg/mL; in assay [3] it was 0.9 µg/mL.

On to `CN(C)c1ccc2nc3ccc(N(C)C)cc3[s+]c2c1.O=[N+]([O-])c1ccc(NN=C(c2ccc(O)cc2)c2ccc(O)cc2)c([N+](=O)[O-])c1.[Cl-]`, for which the IC50 in assay [5] was over 10 µg/mL; in assay [4], 2 µg/mL; in assay [1], 2 µg/mL; in assay [2] (melanoma cell), 1 µg/mL; in assay [3], 2.5 µg/mL. In assay [6], this molecule showed an Activity of 9 ng/mL.

For the molecule `Cc1cc2nc3ccc(N(C)C)cc3[s+]c2cc1N.O=[N+]([O-])c1ccc(NN=C(c2ccc(O)cc2)c2ccc(O)cc2)c([N+](=O)[O-])c1.[Cl-]`, the IC50 worked out at 3 µg/mL in assay [1], 4 µg/mL in assay [2] (setting [7]) and 1.5 µg/mL in assay [3].

Consider `O=[N+]([O-])c1ccc(NN=C(c2ccc(O)cc2)c2ccc(O)cc2)c([N+](=O)[O-])c1` [SIVIFENE], for which the IC50 in assay [5] is over 10 µg/mL; in assay [4] it was 9 µg/mL (≈ 22.8 µM); in assay [1] it was 4 µg/mL (≈ 10.1 µM); in assay [2] (setting [7]) it was over 10 µg/mL; in assay [3], over 10 µg/mL.
